According to patent publication US5670506A, “Halogen, isothiocyanate or azide substituted xanthines” (Cell Therapeutics, Inc., priority 1993, dated 1997):

Experiments:
[1] = system: TNF release from monocytes in whole blood; test: ex vivo human TNF model, LPS-mediated TNF release in whole blood; format: cell-based; details: FIG. 14
Experimental: (§1) This model adds LPS to whole blood (normal human volunteers) to trigger a dose-dependent synthesis and extracellular release of TNF according to Desch et al. (Lymphokine Res. 8:141, 1989). The ex vivo model examines whether LPS-mediated release of TNF from monocytes in whole blood can be block by an inventive compound.
An ex vivo human sepsis model is described in Desch et al., Lymphokine Res. 8:141, 1989 and in Ooi et al., J. Exp. Med. 174:649, 1991. Briefly, whole blood from humans is incubated with LPS (endotoxin). TNF released from cells (mostly from monocytes) is measured. The inventive compounds lower TNF levels as compared with untreated controls in this model.
as §1, with “This example illustrates a comparative experiment comparing CT1595, CT1529 and CT2519 in an ex vivo human TNF model described herein. This assay is a predictive model for treatment and prevention of septic shock and sepsis syndrome. This” for “This”

murine thymocytes = test: inhibition of murine thymocyte proliferation stimulated by ConA and IL-1α; format: cell-based, murine (Balb/C mice); details: FIG. 4, 4 days
Experimental: The drugs (inventive compounds) were added to the cells at the doses indicated two hours prior to activation with ConA and IL-1α. […] Background counts were less than 200 cpm. This in vitro assay is a model for immune suppression and treatment or prevention of autoimmune diseases.
A third assay measures an ability of an inventive compound to inhibit IL-2-induced proliferation of murine thymocytes. Thymus glands are obtained from 4-6 week old mice and plated as a single cell suspension into flat bottomed wells in RPMI 1640 medium supplemented with 10% fetal calf serum. The inventive compounds are added to appropriate wells and the cells are incubated for 1-2 hrs. Concanavilin A (ConA, 0.25 μg/ml) and IL-1 (20 ng/ml) are added and the plates are incubated for 4 days. Cell proliferation is determined as above. There are also variations for this assay that follow the same basic stimulation and measure inhibition of proliferation format. […]
This example illustrates the effect of CT1514, CT1525, CT1527, CT1529, CT1577, CT1583, CT1589, CT1595, CT2519, CT1205, CT1801 and CT1908 on inhibition of murine thymocyte proliferation stimulated by Concanavalin A (ConA) and interleukin-2 (IL-2) (FIG. 4). […] The cells were harvested and incorporated tritiated thymidine was determined in a liquid scintillation counter. […]

[2] = system: transformed cells (Ras 3T3) and normal 3T3 cells; test: cytotoxicity in transformed and normal 3T3 cells; format: cell-based
Experimental: A similar experiment is shown in FIG. 9 for five inventive compounds (see Table 1 […] for chemical names) showing differential cytotoxicity for the same normal and transformed cells.
Each inventive compound is investigated for cytotoxicity to determine appropriate doses for biological activity assays and to prevent cytotoxic reactions in in vitro assays when characterizing activity. Cells (e.g., NIH-3T3, Ras transformed 3T3 cells, malignant melanoma LD2 cells, etc.) are added to microtiter plates and drug is added about two days after plating. Cell viability is determined using a fluorescent viability stain (e.g., 2',7'-bis-(2-carboroxyethyl)-5-(and -6)-carboxyfluorescein acetoxymethyl ester, BCECF excitation 488 nm and emission 525 nm) 24, 48 or 72 hours after addition of the drug.
This example illustrates a comparison of cytotoxicity determinations for CT1595 in transformed cells (Ras 3T3) and in normal 3T3 cells at drug doses of 1, 10 and 100 μM in in vitro cell culture conditions (FIG. 8). […] A similar experiment is shown in FIG. 9 for five inventive compounds (see Table 1 above for chemical names) showing differential cytotoxicity for the same normal and transformed cells.

mast cell line (PT-18) = test: total PA mass in mast cell line stimulated by IgE and DNP; format: cell-based; details: FIG. 13; IgE and DNP stimulation, in words
human stromal cells = test: inhibition of proliferation of human stromal cells stimulated with PDGF; format: cell-based
Experimental: (§2) This assay is a model for restenosis and treatment of atherosclerosis and coronary artery disease. Stromal cells were starved in serum-free media for one day and then stimulated with 50 ng/ml PDGF-BB. The drags were added at the indicated concentrations one hour prior to PDGF stimulation. Tritiated thymidine was added for one day at the time of PDGF stimulation and the cells were harvested and counted by liquid scintillation counting 24 hrs later. Background counts (i.e., starved cells) were approximately 1% of control levels.
Another assay for measuring activity of the inventive compounds involves determining PDGF (platelet derived growth factor) proliferative response using human-derived stromal cells. Human stromal cells are plated (e.g., about 2000 cells per well) in defined media (e.g., 69% McCoy's, 12.5% fetal calf serum, 12.5% horse serum, 1% antibiotics, 1% glutamine, 1% vitamin supplement, 0.8% essential amino acids, 1% sodium pyruvate, 1% sodium bicarbonate, 0.4% non-essential amino acids and 0.36% hydrocortisone). Two to three days later, the stromal cells are starved in serum-free media. Twenty four hours later, the cells are treated with a stimulating agent, such as PDGF-AA, PDGF-BB or basic FGF (fibroblast growth factor) with or without IL-1α or TNF, and tritiated thymidine. Cell proliferation is determined by liquid scintillation counting.
as §2, with “drugs” for “drags”

Cn1cnc2c1c(=O)n(CCCCC(=O)CCl)c(=O)n2C [CT1595, 1-(6-chloro-5-oxohexyl)-3,7-dimethylxanthine]
block of LPS-mediated TNF release [1]: could block TNF release in a dose-dependent fashion
inhibition of thymocyte proliferation (murine thymocytes): most potent drugs
differential cytotoxicity, transformed vs normal 3T3 cells ([2]; FIG. 8, 1, 10 and 100 μM): more cytotoxic for the cancer cell than the normal cell
cytotoxic activity, normal and transformed 3T3 cells ([2]; FIG. 9, five compounds): significant cytotoxic activity
IC50 for accumulation of PA (mast cell line (PT-18)): low nanomolar range
inhibition of human stromal cell proliferation (human stromal cells; FIG. 7, 50 ng/ml PDGF-BB, in words): strongly inhibit proliferation
IC50 (human stromal cells; Homo sapiens, read-out: IC50, inhibition of human stromal cell proliferation): < 10 µM
